Reference: patent publication US8541400B2, “Compositions forming non-lamellar dispersions” (Camurus AB, priority 2004, dated 2013)

Columns and labels:
[1] = Active agent loading into non-lamellar particle dispersion; format: physicochemical; settings: active agent relative to mass of total amphiphile, DGMO/GDO/Pluronic F127 54/36/10 dispersion; for % loading by equilibration: 37° C., three days; for % loading by heat treatment: autoclavation 125° C., 20 minutes
Experimental: A composition comprising DGMO (54% by weight), GDO (36% by weight) and Pluronic® F127 (10% by weight) was dispersed in 99 times its weight in water by the method of Example 2.1.
The dispersion was divided into samples and loaded with each of the active agents shown below by each of two techniques: • i) A saturated solution of active was equilibrated with the particles in dispersion at 37° C. for three days by gentle stirring on a rotating table. • ii) The samples were dispersed in a solution of excess active agent and heat treated by autoclavation at 125° C. for 20 minutes and were allowed to temperature equilibrate at 37° C. for at least one hour.
The following loadings were achieved, expressed as percentage active agent incorporated relative to the mass of total amphiphile.

[2] = Oral bioavailability of octreotide in rats (plasma OCT, competitive immunoassay); format: in vivo; settings: rat, 0.2 mg/kg, read-out: Absolute bioavailability (F)
Experimental: On the first day of the experiment, the rats were prepared by inserting a silicon catheter (OD approx. 1 mm) in the jugular vein under isoflurane anaesthesia. The catheter was tunnelled under the skin and exteriorised between the scapulae. After surgery the rats were allowed 48 hours of recovery before dosing. The catheter was rinsed with 0.9% NaCl containing 1 mM EDTA, every morning during the recovery period.
In the morning, after approximately 16 hours of fasting (water was accessible), the animals were dosed and blood collected. The animals were allowed free access to water after dosing, but had no access to food. After the last sampling, all animals were sacrificed.
The rats were dosed intravenously through the venous catheter or by gavage by a plastic ball-tipped gavage tube. […]
The content of OCT in all plasma samples was measured by a competitive immunoassay. […] The fraction of antibody remaining in solution is removed, and the fraction bound to the immobilized peptide is quantified, the signal obtained being inversely proportional to the concentration of OCT in the sample. […]
Dose-corrected absolute bioavailability of OCT in the oral non-lamellar formulation was calculated as: Availability (F)=(AUCoral×DoseIV)/(AUCIV×Doseoral)×100 20.6—Results

% loading by equilibration [1] [%] | % loading by heat treatment [1] [%] | SMILES | bioavailability [2] [%]
0.6 | 3.76 | C[C@]12CC[C@@H]3c4ccc(O)cc4C[C@@H](CCCCCCCCC[S+]([O-])CCCC(F)(F)C(F)(F)F)[C@H]3[C@@H]1CC[C@@H]2O (stereo partly shown) [Fulvestrant] | –
3.49 | 19.25 | CC(=O)N1CCN(c2ccc(OCC3COC(Cn4ccnc4)(c4ccc(Cl)cc4Cl)O3)cc2)CC1 (stereo not shown) [Ketoconazole] | –
– | – | C[C@@H](O)[C@@H]1NC(=O)[C@H](CCCCN)NC(=O)[C@@H](Cc2c[nH]c3ccccc23)NC(=O)[C@H](Cc2ccccc2)NC(=O)[C@@H](NC(=O)[C@H](N)Cc2ccccc2)CSSC[C@@H](C(=O)N[C@H](CO)[C@@H](C)O)NC1=O [OCT in a saline solution, Octreotide] | ~0.04
2.99 | 12.65 | CC(=O)[C@H]1CC[C@H]2[C@@H]3CCC4=CC(=O)CC[C@]4(C)[C@H]3CC[C@]12C [Progesterone] | –
